Results as given in patent US11286234B2, “Phenyl urea derivatives as N-formyl peptide receptor modulators” (Allergan, Inc., priority 2016, dated 2022).
pEC50: −log10 of the molar value.

Assays:
FPR1 = target: T1, FPR1 (Homo sapiens, UniProt P21462); test: Compound-induced calcium activity (FLIPR Tetra) in CHO-Gα16 cells stably expressing FPR1; assay type: cell-based; settings: for pEC50 / Emax: CHO-Gα16 cells stably expressing FPR1; for pEC50: calcium activity, tested 0.61 to 10,000 nM, read-out: FPR1 Ga16-CHO EC50; for Emax: efficacy value in brackets, read-out: FPR1 Ga16-CHO (% eff); for Ratio FPR2:FPR1 (EC50): ratio of the EC50 for agonizing FPR2 to the EC50 for agonizing FPR1
T1 construct: expressed in transfected cells
T1 sequence (P21462 1-350): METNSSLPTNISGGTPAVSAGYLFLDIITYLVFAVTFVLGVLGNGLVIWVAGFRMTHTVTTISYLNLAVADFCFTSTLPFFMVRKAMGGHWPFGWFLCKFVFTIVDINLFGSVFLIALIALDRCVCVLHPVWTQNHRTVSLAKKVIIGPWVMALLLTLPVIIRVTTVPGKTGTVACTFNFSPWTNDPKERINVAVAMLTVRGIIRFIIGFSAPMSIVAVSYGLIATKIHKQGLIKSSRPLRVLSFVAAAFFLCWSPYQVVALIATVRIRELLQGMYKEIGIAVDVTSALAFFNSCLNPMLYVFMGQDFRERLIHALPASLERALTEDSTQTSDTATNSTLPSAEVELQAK
Experimental: (§1) CHO-Gα16 cells stably expressing FPR1 or FPR2 were cultured in: Ham's F12 nutrient media, 10% fetal bovine serum, 1% PSA (penicillin, streptomycin, amphotericin B antiobiotic/antimycotic), 400 μg/ml geneticin and 50 μg/ml hygromycin. In general, the day before the experiment, 18,000 cells/well were plated in a 384-well clear bottom poly-D-lysine coated plate. The following day the screening compound-induced calcium activity was assayed on the FLIPR^Tetra. The drug plates were prepared in 384-well microplates using the EP3 and the MultiPROBE robotic liquid handling systems. Compounds were tested at concentrations ranging from 0.61 to 10,000 nM. Results are expressed as EC50 (nM) and efficacy values.

FPR2 = target: T2, FPR2 (Homo sapiens, UniProt P25090); test: Compound-induced calcium activity (FLIPR Tetra) in CHO-Gα16 cells stably expressing FPR2; assay type: cell-based; settings: for pEC50: calcium activity, tested 0.61 to 10,000 nM, read-out: FPR2 Ga16-CHO EC50; for Emax: efficacy value in brackets, read-out: FPR2 Ga16-CHO (% eff)
T2 construct: expressed in transfected cells
T2 sequence (P25090 1-351): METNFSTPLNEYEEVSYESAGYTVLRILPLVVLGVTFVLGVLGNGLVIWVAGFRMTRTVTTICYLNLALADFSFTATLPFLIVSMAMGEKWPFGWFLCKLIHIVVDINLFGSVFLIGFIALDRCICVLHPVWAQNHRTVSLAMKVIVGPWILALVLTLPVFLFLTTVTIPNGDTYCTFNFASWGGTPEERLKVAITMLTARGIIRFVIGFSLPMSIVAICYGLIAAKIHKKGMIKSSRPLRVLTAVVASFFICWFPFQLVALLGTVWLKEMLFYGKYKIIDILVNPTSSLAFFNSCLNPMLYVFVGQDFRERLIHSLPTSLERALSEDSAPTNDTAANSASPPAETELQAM
Experimental: as §1

Row | Compound | pEC50 (FPR1) | Emax (FPR1) [%] | Ratio FPR2:FPR1 (EC50) (FPR1) | pEC50 (FPR2) | Emax (FPR2) [%]
1 | COC(=O)C(CNC(=O)Nc1ccc(Br)cc1)CC(C)C (stereo not drawn) [Compound 1, Methyl 2-[({[(4-bromophenyl)amino]carbonyl}amino)methyl]-4-methylpentanoate] | 5.39 | 72 | 0.17 | 6.17 | 47
2 | COC(=O)C(CNC(=O)Nc1ccc(C(F)(F)F)cc1)CC(C)C (stereo not drawn) [Compound 2, Methyl 4-methyl-2-{[({[4-(trifluoromethyl)phenyl]amino}carbonyl)amino]methyl}pentanoate] | 4.98 | 57 | 0.21 | 5.66 | 78
3 | COC(=O)C(CNC(=O)Nc1ccc(Cl)cc1)CC(C)C (stereo not drawn) [Compound 3, Methyl 2-[({[(4-chlorophenyl)amino]carbonyl}amino)methyl]-4-methylpentanoate] | < 5.00 | 50 | <1 | 5.88 | 95
4 | COC(=O)C(CNC(=O)Nc1ccc(Br)cc1F)CC(C)C (stereo not drawn) [Compound 4, Methyl 2[({[(4-bromo-2-fluorophenyl)amino]carbonyl}amino)methyl]-4-methylpentanoate] | < 4.72 | 21 | <1 | 5.82 | 98
5 | COC(=O)C(CNC(=O)Nc1ccc(OC)cc1)CC(C)C (stereo not drawn) [Compound 5, Methyl 2-[({[(4-methoxyphenyl)amino]carbonyl}amino)methyl]-4-methylpentanoate] | < 4.14 | 65 | <1 | 6.27 | 42
6 | COC(=O)C(CNC(=O)Nc1ccc(OC(F)(F)F)cc1)CC(C)C (stereo not drawn) [Compound 6, Methyl 4-methyl-2-{[({[4-(trifluoromethoxy)phenyl]amino}carbonyl)amino]methyl}pentanoate] | < 4.82 | 39 |  | < 6.00 | 67
7 | CC(C)C(CNC(=O)Nc1ccc(Br)cc1)C(=O)O (stereo not drawn) [Compound 13, 2-((3-(4-Bromophenyl)ureido)methyl)-3-methylbutanoic acid] | 5.66 | 97 | 1.2 | 5.57 | 83
8 | CC(CNC(=O)Nc1ccc(Br)cc1)C(=O)O (stereo not drawn) [Compound 16, 3-(3-(4-Bromophenyl)ureido)-2-methylpropanoic acid] | 5.55 | 84 | 1.1 | 5.51 | 62
9 | CCC(CNC(=O)Nc1ccc(Br)cc1)C(=O)O (stereo not drawn) [Compound 17, 2-((3-(4-Bromophenyl)ureido)methyl)butanoic acid] | 5.67 | 85 | 1.1 | 5.64 | 71
10 | CC(C)CC(CNC(=O)Nc1ccc(Br)cc1)C(=O)N(C)CC(=O)OC(C)(C)C (stereo not drawn) [Compound 32, tert-Butyl 2-(2-((3-(4-bromophenyl)ureido)methyl)-N,4-dimethylpentanamido)acetate] | 5.60 | 73 | 0.41 | 5.99 | 89
11 | CC(C)CC(CNC(=O)Nc1ccc(Br)cc1)C(=O)N(C)C (stereo not drawn) [Compound 34, 2-((3-(4-bromophenyl)ureido)methyl)-N,N,4-trimethylpentanamide] | 5.20 | 69 | <1 | 6.50 | 92
12 | CC(C)CC(CNC(=O)Nc1ccc(Br)cc1)C(N)=O (stereo not drawn) [Compound 35, 2-((3-(4-bromophenyl)ureido)methyl)-4-methylpentanamide] | 5.15 | 80 | 0.14 | 6.01 | 95

Compounds with a higher pEC50 (FPR1), results first:

Row | pEC50 (FPR1) | Emax (FPR1) [%] | Ratio FPR2:FPR1 (EC50) (FPR1) | pEC50 (FPR2) | Emax (FPR2) [%] | Compound
13 | 7.33 | 101 | 5.2 | 6.61 | 98 | O=C(Nc1ccc(Br)cc1)N[C@@H]1CCCC[C@H]1C(=O)O (relative stereo) [Compound 18, (1R*,2R*)-2-(3-(4-Bromophenyl)ureido)cyclohexanecarboxylic acid]
14 | 7.85 | 97 | 3.4 | 7.32 | 102 | O=C(Nc1ccc(Br)cc1)N[C@H]1CCCC[C@H]1C(=O)O (relative stereo) [Compound 19, (1R*,2S*)-2-(3-(4-Bromophenyl)ureido)cyclohexanecarboxylic acid]
15 | 7.46 | 97 | 37 | 5.89 | 90 | CC(C)CC(CNC(=O)Nc1ccc(Br)cc1)C(=O)O (stereo not drawn) [Compound 7, 2-[({[(4-Bromophenyl)amino]carbonyl}amino)methyl]-4-methylpentanoic acid]
16 | 7.27 | 105 | 25 | 5.87 | 92 | CC(C)CC(CNC(=O)Nc1ccc(C(F)(F)F)cc1)C(=O)O (stereo not drawn) [Compound 8, 4-Methyl-2-{[({[4-(trifluoromethyl)phenyl}amino}carbonyl)amino]methyl}pentanoic acid]
17 | 6.79 | 95 | 18 | 5.52 |  | CC(C)CC(CNC(=O)Nc1ccc(Cl)cc1)C(=O)O (stereo not drawn) [Compound 9, 2-[({[(4-Chlorophenyl)amino]carbonyl}amino)methyl]-4-methylpentanoic acid]
18 | 6.95 | 98 | 17 | 5.72 | 94 | CC(C)CC(CNC(=O)Nc1ccc(Br)cc1F)C(=O)O (stereo not drawn) [Compound 10, 2[({[(4-Bromo-2-fluorophenyl)amino]carbonyl}amino)methyl]-4-methylpentanoic acid]
19 | 5.92 | 92 |  | < 6.00 | 56 | COc1ccc(NC(=O)NCC(CC(C)C)C(=O)O)cc1 (stereo not drawn) [Compound 11, 2-[({[(4-methoxyphenyl)amino]carbonyl}amino)methyl]-4-methylpentanoic acid]
20 | 5.93 | 81 | 6.9 | 5.09 | 40 | CC(C)CC(CNC(=O)Nc1ccc(OC(F)(F)F)cc1)C(=O)O (stereo not drawn) [Compound 12, 4-Methyl-2-{[({[4-(trifluoromethoxy)phenyl]amino}carbonyl)amino]methyl}pentanoic acid]
21 | 6.61 | 99 | 5.4 | 5.88 | 83 | CCCC(CNC(=O)Nc1ccc(Br)cc1)C(=O)O (stereo not drawn) [Compound 14, 2-((3-(4-Bromophenyl)ureido)methyl)pentanoic acid]
22 | 7.17 | 94 | 5.2 | 6.45 | 93 | O=C(NCC(Cc1ccccc1)C(=O)O)Nc1ccc(Br)cc1 (stereo not drawn) [Compound 15, 2-Benzyl-3-(3-(4-bromophenyl)ureido)propanoic acid]
23 | 7.29 |  | 1.6 | 7.09 | 97 | O=C(Nc1ccc(Br)cc1)NC1CCCCCCC1C(=O)O (stereo not drawn) [Compound 20, 2-(3-(4-Bromophenyl)ureido)cyclooctanecarboxylic acid]
24 | 8.15 | 99 | 179 | 5.90 | 89 | CC(C)CC(CCNC(=O)Nc1ccc(Br)cc1)S(=O)(=O)O (stereo not drawn) [Compound 21, 1-(3-(4-Bromophenyl)ureido)-5-methylhexane-3-sulfonic acid]
25 | 6.26 | 98 | 2.7 | 5.82 | 18 | CC(C)CC(CNC(=O)Nc1ccc(Br)cc1)C(=O)NCC(=O)OC(C)(C)C (stereo not drawn) [Compound 31, t-Butyl ({2-[({[(4 bromophenyl)amino]carbonyl}amino)methyl]-4-methylpentanoyl}amino)acetate]
26 | 7.89 | 95 | 10 | 6.89 | 98 | CC(C)CC(CNC(=O)Nc1ccc(Br)cc1)C(=O)NCc1nnn[nH]1 (stereo not drawn) [Compound 33, N-((1H-tetrazol-5-yl)methyl)-2-((3-(4-bromophenyl)ureido)methyl)-4-methylpentanamide]
